Experiments:
pigweed = assay: Test B pre/postemergence pigweed; type: in vivo, Amaranthus retroflexus
How it was run: (§1)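 Test chemicals in a non-phytotoxic solvent mixture with surfactant were sprayed preemergence onto planted seeds and postemergence onto plants 2 to 18 cm tall (1- to 4-leaf stage). After twelve to sixteen days in a greenhouse, injury was visually rated against untreated controls from 0 (no effect) to 10 (complete control).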

morningglory = assay: Test B pre/postemergence morningglory; type: in vivo, Ipomoea hederacea
How it was run: as §1

surinam grass = assay: Test B pre/postemergence surinam grass; type: in vivo, Brachiaria decumbens
How it was run: as §1

velvetleaf = assay: Test B pre/postemergence velvetleaf; type: in vivo, Abutilon theophrasti
How it was run: as §1

wild oat = assay: Test B pre/postemergence wild oat; type: in vivo, Avena fatua
How it was run: as §1

sugar beet = assay: Test B pre/postemergence sugar beet; type: in vivo, Beta vulgaris
How it was run: as §1

corn = assay: Test B pre/postemergence corn; type: in vivo, Zea mays
How it was run: as §1

soybean = assay: Test B pre/postemergence soybean; type: in vivo, Glycine max
How it was run: as §1

giant foxtail = assay: Test B pre/postemergence giant foxtail; type: in vivo, Setaria faberii
How it was run: as §1

purple nutsedge = assay: Test B pre/postemergence purple nutsedge; type: in vivo, Cyperus rotundus
How it was run: as §1

blackgrass = assay: Test B pre/postemergence blackgrass; type: in vivo, Alopecurus myosuroides
How it was run: as §1

wheat = assay: Test B pre/postemergence wheat; type: in vivo, Triticum aestivum
How it was run: as §1

rape = assay: Test B pre/postemergence rape; type: in vivo, Brassica napus
How it was run: as §1

bedstraw = assay: Test B pre/postemergence bedstraw; type: in vivo, Galium aparine
How it was run: as §1

crabgrass = assay: Test B pre/postemergence crabgrass; type: in vivo, Digitaria sanguinalis
How it was run: as §1

cocklebur = assay: Test B pre/postemergence cocklebur; type: in vivo, Xanthium strumarium
How it was run: as §1

[1] = Postemergence, Rate 62 g/ha, scale 0 to 10, 0 is no effect, 10 is complete control
[2] = Postemergence, Rate 125 g/ha, scale of 0 to 10 where 0 is no effect and 10 is complete control
[3] = Postemergence, Rate 500 g/ha, scale 0 (no effect) to 10 (complete control)
[4] = Rate 62 g/ha, Preemergence, scale 0 to 10
[5] = Rate 125 g/ha, Preemergence, scale 0 to 10 (0 no effect, 10 complete control)
[6] = Rate 250 g/ha, Postemergence, scale 0 to 10, 0 is no effect, 10 is complete control
[7] = Rate 500 g/ha, Preemergence, scale 0 to 10 (0 no effect, 10 complete control)
[8] = Preemergence, Rate 250 g/ha, scale 0 (no effect) to 10 (complete control)
[9] = Rate 500 g/ha, Postemergence, scale 0 to 10, 0 is no effect, 10 is complete control
[10] = Postemergence, Rate 1000 g/ha, scale 0 to 10 (0 no effect, 10 complete control)
[11] = Rate 1000 g/ha, Preemergence, scale 0 to 10 (0 no effect, 10 complete control)

CCOC(CC)n1c(=O)on(C(=O)N(c2ccc(Cl)cc2)C(C)C)c1=O (stereo not shown) [Compound 772]
Plant response rating, Redroot pigweed (pigweed; [1]): 0
Redroot pigweed plant response rating (pigweed; [2]): 0
Redroot pigweed plant response rating (pigweed; [3]): 0
Redroot pigweed plant response rating (pigweed; [4]): 0
Redroot pigweed plant response rating (pigweed; [5]): 0
Redroot pigweed plant response rating (pigweed; [6]): 0
Redroot pigweed plant response rating (pigweed; [7]): 0
Plant response rating, Morningglory (morningglory; [1]): 0
Morningglory plant response rating (morningglory; [2]): 0
Morningglory plant response rating (morningglory; [3]): 2
Morningglory plant response rating (morningglory; [4]): 0
Morningglory plant response rating (morningglory; [5]): 0
Morningglory plant response rating (morningglory; [6]): 0
Morningglory plant response rating (morningglory; [7]): 0
Plant response rating, B. signalgrass (surinam grass; [1]): 0
B. signalgrass plant response rating (surinam grass; [2]): 0
B. signalgrass plant response rating (surinam grass; [8]): 0
B. signalgrass plant response rating (surinam grass; Rate 62 g/ha, Preemergence, scale 0 (no effect) to 10 (complete control)): 0
B. signalgrass plant response rating (surinam grass; [5]): 0
B. signalgrass plant response rating (surinam grass; [6]): 0
B. signalgrass plant response rating (surinam grass; [9]): 0
B. signalgrass plant response rating (surinam grass; [7]): 0
Plant response rating, Velvetleaf (velvetleaf; [1]): 0
Velvetleaf plant response rating (velvetleaf; [3]): 0
Velvetleaf plant response rating (velvetleaf; [4]): 0
Velvetleaf plant response rating (velvetleaf; [5]): 0
Velvetleaf plant response rating (velvetleaf; [6]): 0
Velvetleaf plant response rating (velvetleaf; [7]): 0
Plant response rating, Wild oats (wild oat; [1]): 0
Wild oats plant response rating (wild oat; [3]): 0
Wild oats plant response rating (wild oat; [4]): 0
Wild oats plant response rating (wild oat; [5]): 0
Wild oats plant response rating (wild oat; [6]): 0
Wild oats plant response rating (wild oat; [7]): 0
Plant response rating, Sugarbeets (sugar beet; [1]): 0
Sugarbeets plant response rating (sugar beet; [3]): 0
Sugarbeets plant response rating (sugar beet; [4]): 0
Sugarbeets plant response rating (sugar beet; [5]): 0
Sugarbeets plant response rating (sugar beet; [6]): 0
Sugarbeets plant response rating (sugar beet; [7]): 0
Plant response rating, Corn (corn; [1]): 0
Corn plant response rating (corn; [2]): 0
Corn plant response rating (corn; [3]): 0
Corn plant response rating (corn; [8]): 0
Corn plant response rating (corn; [4]): 0
Corn plant response rating (corn; [5]): 0
Corn plant response rating (corn; [6]): 0
Corn plant response rating (corn; [7]): 0
Plant response rating, Soybean (soybean; [1]): 0
Soybean plant response rating (soybean; [3]): 0
Soybean plant response rating (soybean; [4]): 0
Soybean plant response rating (soybean; [5]): 0
Soybean plant response rating (soybean; [6]): 0
Soybean plant response rating (soybean; [7]): 0
Plant response rating, Giant foxtail (giant foxtail; [1]): 0
Giant foxtail plant response rating (giant foxtail; [2]): 0
Giant foxtail plant response rating (giant foxtail; [3]): 0
Giant foxtail plant response rating (giant foxtail; [8]): 0
Giant foxtail plant response rating (giant foxtail; [4]): 0
Giant foxtail plant response rating (giant foxtail; [5]): 0
Giant foxtail plant response rating (giant foxtail; [6]): 0
Giant foxtail plant response rating (giant foxtail; [7]): 0
Plant response rating, Nutsedge (purple nutsedge; [1]): 0
Nutsedge plant response rating (purple nutsedge; [2]): 0
Nutsedge plant response rating (purple nutsedge; [3]): 0
Nutsedge plant response rating (purple nutsedge; [4]): 0
Nutsedge plant response rating (purple nutsedge; [5]): 0
Nutsedge plant response rating (purple nutsedge; [6]): 0
Nutsedge plant response rating (purple nutsedge; [7]): 0
Plant response rating, Blackgrass (blackgrass; [1]): 0
Blackgrass plant response rating (blackgrass; [2]): 0
Blackgrass plant response rating (blackgrass; [3]): 0
Blackgrass plant response rating (blackgrass; [8]): 0
Blackgrass plant response rating (blackgrass; [4]): 0
Blackgrass plant response rating (blackgrass; [5]): 0
Blackgrass plant response rating (blackgrass; [6]): 0
Blackgrass plant response rating (blackgrass; [7]): 0
Plant response rating, Wheat (wheat; [1]): 0
Wheat plant response rating (wheat; [3]): 0
Wheat plant response rating (wheat; [4]): 0
Wheat plant response rating (wheat; [5]): 0
Wheat plant response rating (wheat; [6]): 0
Wheat plant response rating (wheat; [7]): 0
Plant response rating, Rape (rape; [1]): 0
Rape plant response rating (rape; [2]): 0
Rape plant response rating (rape; [3]): 0
Rape plant response rating (rape; [4]): 0
Rape plant response rating (rape; [5]): 0
Rape plant response rating (rape; [6]): 0
Rape plant response rating (rape; [7]): 0
Plant response rating, Bedstraw (bedstraw; [1]): 0
Bedstraw plant response rating (bedstraw; [2]): 0
Bedstraw plant response rating (bedstraw; [3]): 0
Bedstraw plant response rating (bedstraw; [8]): 0
Bedstraw plant response rating (bedstraw; [4]): 0
Bedstraw plant response rating (bedstraw; [5]): 0
Bedstraw plant response rating (bedstraw; [6]): 0
Bedstraw plant response rating (bedstraw; [7]): 0
Plant response rating, Crabgrass (crabgrass; [1]): 0
Crabgrass plant response rating (crabgrass; [2]): 0
Crabgrass plant response rating (crabgrass; [3]): 0
Crabgrass plant response rating (crabgrass; [8]): 0
Crabgrass plant response rating (crabgrass; [4]): 0
Crabgrass plant response rating (crabgrass; [5]): 0
Crabgrass plant response rating (crabgrass; [6]): 0
Crabgrass plant response rating (crabgrass; [7]): 0
Plant response rating, Cocklebur (cocklebur; [1]): 0
Cocklebur plant response rating (cocklebur; [2]): 0
Cocklebur plant response rating (cocklebur; [3]): 0
Cocklebur plant response rating (cocklebur; [8]): 0
Cocklebur plant response rating (cocklebur; [4]): 0
Cocklebur plant response rating (cocklebur; [5]): 0
Cocklebur plant response rating (cocklebur; [6]): 0
Cocklebur plant response rating (cocklebur; [7]): 0

COP(=O)(CCn1c(=O)on(C(=O)N(c2ccc(F)cc2F)C(C)C)c1=O)OC [Compound 777]
Redroot pigweed plant response rating (pigweed; [2]): 2
Redroot pigweed plant response rating (pigweed; [3]): 4
Redroot pigweed plant response rating (pigweed; [10]): 8
Redroot pigweed plant response rating (pigweed; [5]): 2
Redroot pigweed plant response rating (pigweed; [6]): 4
Redroot pigweed plant response rating (pigweed; [7]): 2
Plant response rating, Redroot pigweed (pigweed; [11]): 9
Morningglory plant response rating (morningglory; [2]): 8
Morningglory plant response rating (morningglory; [3]): 8
Morningglory plant response rating (morningglory; [10]): 8
Morningglory plant response rating (morningglory; [5]): 1
Morningglory plant response rating (morningglory; [6]): 8
Morningglory plant response rating (morningglory; [7]): 5
Plant response rating, Morningglory (morningglory; [11]): 7
B. signalgrass plant response rating (surinam grass; [2]): 2
B. signalgrass plant response rating (surinam grass; [10]): 8
B. signalgrass plant response rating (surinam grass; [6]): 2
B. signalgrass plant response rating (surinam grass; [9]): 3
Velvetleaf plant response rating (velvetleaf; [3]): 5
Velvetleaf plant response rating (velvetleaf; [5]): 0
Velvetleaf plant response rating (velvetleaf; [6]): 3
Velvetleaf plant response rating (velvetleaf; [7]): 0
Plant response rating, Velvetleaf (velvetleaf; [11]): 3
Wild oats plant response rating (wild oat; [3]): 3
Wild oats plant response rating (wild oat; [5]): 3
Wild oats plant response rating (wild oat; [6]): 2
Wild oats plant response rating (wild oat; [7]): 9
Plant response rating, Wild oats (wild oat; [11]): 9
Sugarbeets plant response rating (sugar beet; [3]): 5
Sugarbeets plant response rating (sugar beet; [5]): 0
Sugarbeets plant response rating (sugar beet; [6]): 3
Sugarbeets plant response rating (sugar beet; [7]): 3
Plant response rating, Sugarbeets (sugar beet; [11]): 3
Corn plant response rating (corn; [2]): 0
Corn plant response rating (corn; [3]): 0
Corn plant response rating (corn; [10]): 0
Corn plant response rating (corn; [8]): 0
Corn plant response rating (corn; [5]): 0
Corn plant response rating (corn; [6]): 0
Corn plant response rating (corn; [7]): 0
Plant response rating, Corn (corn; [11]): 0
Soybean plant response rating (soybean; [3]): 6
Soybean plant response rating (soybean; [5]): 0
Soybean plant response rating (soybean; [6]): 3
Soybean plant response rating (soybean; [7]): 0
Plant response rating, Soybean (soybean; [11]): 0
Giant foxtail plant response rating (giant foxtail; [2]): 8
Giant foxtail plant response rating (giant foxtail; [3]): 9
Giant foxtail plant response rating (giant foxtail; [10]): 9
Giant foxtail plant response rating (giant foxtail; [8]): 10
Giant foxtail plant response rating (giant foxtail; [5]): 10
Giant foxtail plant response rating (giant foxtail; [6]): 8
Giant foxtail plant response rating (giant foxtail; [7]): 10
Plant response rating, Giant foxtail (giant foxtail; [11]): 10
Nutsedge plant response rating (purple nutsedge; [3]): 3
Nutsedge plant response rating (purple nutsedge; [10]): 3
Nutsedge plant response rating (purple nutsedge; [5]): 0
Nutsedge plant response rating (purple nutsedge; [6]): 0
Plant response rating, Nutsedge (purple nutsedge; [11]): 1
Blackgrass plant response rating (blackgrass; [2]): 0
Blackgrass plant response rating (blackgrass; [3]): 4
Blackgrass plant response rating (blackgrass; [10]): 4
Blackgrass plant response rating (blackgrass; [8]): 10
Blackgrass plant response rating (blackgrass; [5]): 2
Blackgrass plant response rating (blackgrass; [6]): 2
Blackgrass plant response rating (blackgrass; [7]): 10
Plant response rating, Blackgrass (blackgrass; [11]): 10
Wheat plant response rating (wheat; [3]): 3
Wheat plant response rating (wheat; [5]): 0
Wheat plant response rating (wheat; [6]): 2
Wheat plant response rating (wheat; [7]): 9
Plant response rating, Wheat (wheat; [11]): 9
Rape plant response rating (rape; [2]): 0
Rape plant response rating (rape; [3]): 0
Rape plant response rating (rape; [10]): 0
Rape plant response rating (rape; [5]): 0
Rape plant response rating (rape; [6]): 0
Rape plant response rating (rape; [7]): 2
Plant response rating, Rape (rape; [11]): 7
Bedstraw plant response rating (bedstraw; [2]): 0
Bedstraw plant response rating (bedstraw; [3]): 3
Bedstraw plant response rating (bedstraw; [10]): 6
Bedstraw plant response rating (bedstraw; [5]): 0
Bedstraw plant response rating (bedstraw; [6]): 2
Bedstraw plant response rating (bedstraw; [7]): 0
Plant response rating, Bedstraw (bedstraw; [11]): 3
Crabgrass plant response rating (crabgrass; [2]): 4
Crabgrass plant response rating (crabgrass; [3]): 9
Crabgrass plant response rating (crabgrass; [8]): 10
Crabgrass plant response rating (crabgrass; [5]): 10
Crabgrass plant response rating (crabgrass; [6]): 7
Crabgrass plant response rating (crabgrass; [7]): 10
Plant response rating, Crabgrass (crabgrass; [11]): 10
Cocklebur plant response rating (cocklebur; [2]): 0
Cocklebur plant response rating (cocklebur; [3]): 0
Cocklebur plant response rating (cocklebur; [10]): 0
Cocklebur plant response rating (cocklebur; [8]): 0
Cocklebur plant response rating (cocklebur; [5]): 0
Cocklebur plant response rating (cocklebur; [6]): 0
Cocklebur plant response rating (cocklebur; [7]): 0
